Values joined by “and” are separate entries in the source; they are usually repeats but may differ in a detail not shown here. Equal entries are not always repeated. Where two headings read alike, the source gives them in different places.
System: mtrC-lacZ expression
Format: cell-based, Neisseria gonorrhoeae
Conditions: for β-galactosidase activity, Mean / β-galactosidase activity, single replicate: mtrCDE block (c1-c37), ΔmtrR + mtrR R176E in trans; for β-galactosidase activity, individual replicate / β-galactosidase activity, Miller units (single replicate): mtrR WT in cis; for β-galactosidase activity, individual replicate: single replicate values, second (right) block
[1] = mtrC-lacZ, ΔmtrR + mtrR D171A in trans, 6.25 µM hormone, single replicate
[2] = mtrC-lacZ, ΔmtrR + mtrR D171A in trans, 12.5 µM hormone, single replicate
[3] = mtrC-lacZ, ΔmtrR + mtrR D171A in trans, 25 µM hormone, single replicate
[4] = mtrC-lacZ, ΔmtrR + mtrR D171A in trans, 50 µM hormone, single replicate
[5] = mtrC-lacZ, ΔmtrR + mtrR WT in trans, 6.25 µM hormone, single replicate
[6] = mtrC-lacZ, ΔmtrR + mtrR WT in trans, 12.5 µM hormone, single replicate
[7] = mtrC-lacZ, ΔmtrR + mtrR WT in trans, 25 µM hormone, single replicate
[8] = mtrC-lacZ, ΔmtrR + mtrR WT in trans, 50 µM hormone, single replicate

Compound: C[C@]12CC[C@@H]3c4ccc(O)cc4CC[C@H]3[C@@H]1CC[C@@H]2O [β-Estradiol, β-estradiol]
- Miller units, Mean (Mean of plate rows 1-4, plate columns 1-6 (first strain), 6.25 µM hormone): 83 Miller units
- Miller units, Mean (Mean of plate rows 1-4, plate columns 1-6 (first strain), 12.5 µM hormone): 113 Miller units
- Miller units, Mean (Mean of plate rows 1-4, plate columns 1-6 (first strain), 25 µM hormone): 148 Miller units
- Miller units, Mean (Mean of plate rows 1-4, plate columns 1-6 (first strain), 50 µM hormone): 162 Miller units
- Miller units, Mean (Mean of plate rows 1-4, plate columns 7-12 (second strain), 6.25 µM hormone): 163 Miller units
- Miller units, Mean (Mean of plate rows 1-4, plate columns 7-12 (second strain), 12.5 µM hormone): 152 Miller units
- Miller units, Mean (Mean of plate rows 1-4, plate columns 7-12 (second strain), 25 µM hormone): 175 Miller units
- Miller units, Mean (Mean of plate rows 1-4, plate columns 7-12 (second strain), 50 µM hormone): 160 Miller units
- induction of mtrC expression (complemented (MtrR+) strains, increasing hormone): could be induced
- induction of mtrC expression (loss of MtrR or MtrR-D171A strain): abrogated
- Miller units, Mean (mtrC-lacZ, WT strain, 6.25 µM hormone): 131 Miller units
- β-galactosidase activity (Miller units) (mtrC-lacZ, WT strain, 6.25 µM hormone, single replicate): 164 Miller units and 114 Miller units and 120 Miller units
- Miller units, Mean (mtrC-lacZ, WT strain, 12.5 µM hormone): 148 Miller units
- β-galactosidase activity (Miller units) (mtrC-lacZ, WT strain, 12.5 µM hormone, single replicate): 178 Miller units and 161 Miller units and 132 Miller units
- Miller units, Mean (mtrC-lacZ, WT strain, 25 µM hormone): 177 Miller units
- β-galactosidase activity (Miller units) (mtrC-lacZ, WT strain, 25 µM hormone, single replicate): 160 Miller units and 189 Miller units
- Miller units, Mean (mtrC-lacZ, WT strain, 50 µM hormone): 224 Miller units
- β-galactosidase activity (Miller units) (mtrC-lacZ, WT strain, 50 µM hormone, single replicate): 242 Miller units and 240 Miller units and 211 Miller units
- Miller units, Mean (mtrC-lacZ, WT, 6.25 µM hormone): 131 Miller units
- Miller units (mtrC-lacZ, WT, 6.25 µM hormone, single replicate (plate data)): 164 Miller units and 114 Miller units and 128 Miller units and 120 Miller units
- Miller units, Mean (mtrC-lacZ, WT, 12.5 µM hormone): 148 Miller units
- Miller units (mtrC-lacZ, WT, 12.5 µM hormone, single replicate (plate data)): 178 Miller units and 161 Miller units and 120 Miller units and 132 Miller units
- Miller units, Mean (mtrC-lacZ, WT, 25 µM hormone): 177 Miller units
- Miller units (mtrC-lacZ, WT, 25 µM hormone, single replicate (plate data)): 160 Miller units and 176 Miller units and 189 Miller units
- Miller units, Mean (mtrC-lacZ, WT, 50 µM hormone): 224 Miller units
- Miller units (mtrC-lacZ, WT, 50 µM hormone, single replicate (plate data)): 242 Miller units and 240 Miller units and 203 Miller units and 211 Miller units
- Miller units, Mean (mtrC-lacZ, ΔmtrR + mtrR D171A in trans, 6.25 µM hormone): 148.9 Miller units
- Miller units [1]: 158 Miller units and 155 Miller units
- β-galactosidase activity (Miller units) [1]: 155 Miller units and 147 Miller units and 135 Miller units
- Miller units, Mean (mtrC-lacZ, ΔmtrR + mtrR D171A in trans, 12.5 µM hormone): 157.2 Miller units
- Miller units [2]: 167 Miller units and 147 Miller units
- β-galactosidase activity (Miller units) [2]: 147 Miller units and 195 Miller units and 119 Miller units
- Miller units, Mean (mtrC-lacZ, ΔmtrR + mtrR D171A in trans, 25 µM hormone): 167.0 Miller units
- Miller units [3]: 203 Miller units and 162 Miller units
- β-galactosidase activity (Miller units) [3]: 162 Miller units and 132 Miller units and 171 Miller units
- Miller units, Mean (mtrC-lacZ, ΔmtrR + mtrR D171A in trans, 50 µM hormone): 162.7 Miller units
- Miller units [4]: 193 Miller units
- β-galactosidase activity (Miller units) [4]: 188 Miller units and 124 Miller units and 146 Miller units
- Miller units, Mean (mtrC-lacZ, ΔmtrR + mtrR WT in trans, 6.25 µM hormone): 116 Miller units
- Miller units [5]: 106 Miller units and 141 Miller units and 104 Miller units and 116 Miller units
- β-galactosidase activity (Miller units) [5]: 106 Miller units and 141 Miller units and 104 Miller units and 116 Miller units
- Miller units, Mean (mtrC-lacZ, ΔmtrR + mtrR WT in trans, 12.5 µM hormone): 113 Miller units
- Miller units [6]: 119 Miller units and 115 Miller units and 110 Miller units
- β-galactosidase activity (Miller units) [6]: 119 Miller units and 115 Miller units and 110 Miller units
- Miller units, Mean (mtrC-lacZ, ΔmtrR + mtrR WT in trans, 25 µM hormone): 138 Miller units
- Miller units [7]: 133 Miller units and 147 Miller units and 127 Miller units and 144 Miller units
- β-galactosidase activity (Miller units) [7]: 133 Miller units and 147 Miller units and 127 Miller units and 144 Miller units
- Miller units, Mean (mtrC-lacZ, ΔmtrR + mtrR WT in trans, 50 µM hormone): 158 Miller units
- Miller units [8]: 176 Miller units and 161 Miller units and 132 Miller units and 164 Miller units
- β-galactosidase activity (Miller units) [8]: 176 Miller units and 161 Miller units and 132 Miller units and 164 Miller units
- Miller units, Mean (mtrC-lacZ, ΔmtrR strain, 6.25 µM hormone): 210 Miller units
- β-galactosidase activity (Miller units) (mtrC-lacZ, ΔmtrR strain, 6.25 µM hormone, single replicate): 187 Miller units and 203 Miller units and 200 Miller units
- Miller units, Mean (mtrC-lacZ, ΔmtrR strain, 12.5 µM hormone): 218 Miller units
- β-galactosidase activity (Miller units) (mtrC-lacZ, ΔmtrR strain, 12.5 µM hormone, single replicate): 197 Miller units and 237 Miller units and 209 Miller units
- Miller units, Mean (mtrC-lacZ, ΔmtrR strain, 25 µM hormone): 243 Miller units
- β-galactosidase activity (Miller units) (mtrC-lacZ, ΔmtrR strain, 25 µM hormone, single replicate): 261 Miller units and 223 Miller units and 202 Miller units
- Miller units, Mean (mtrC-lacZ, ΔmtrR strain, 50 µM hormone): 255 Miller units
- β-galactosidase activity (Miller units) (mtrC-lacZ, ΔmtrR strain, 50 µM hormone, single replicate): 220 Miller units and 317 Miller units
- Miller units, Mean (mtrC-lacZ, ΔmtrR, 6.25 µM hormone): 210 Miller units
- Miller units (mtrC-lacZ, ΔmtrR, 6.25 µM hormone, single replicate (plate data)): 203 Miller units and 200 Miller units and 187 Miller units and 250 Miller units
- Miller units, Mean (mtrC-lacZ, ΔmtrR, 12.5 µM hormone): 218 Miller units
- Miller units (mtrC-lacZ, ΔmtrR, 12.5 µM hormone, single replicate (plate data)): 237 Miller units and 209 Miller units and 197 Miller units and 228 Miller units
- Miller units, Mean (mtrC-lacZ, ΔmtrR, 25 µM hormone): 243 Miller units
- Miller units (mtrC-lacZ, ΔmtrR, 25 µM hormone, single replicate (plate data)): 223 Miller units and 202 Miller units and 261 Miller units and 287 Miller units
- Miller units, Mean (mtrC-lacZ, ΔmtrR, 50 µM hormone): 255 Miller units
- Miller units (mtrC-lacZ, ΔmtrR, 50 µM hormone, single replicate (plate data)): 317 Miller units and 220 Miller units and 261 Miller units
- β-galactosidase activity, Mean (6.25 µM): 194 Miller units
- β-galactosidase activity, single replicate (6.25 µM): 207 Miller units and 196 Miller units and 188 Miller units
- β-galactosidase activity, Mean (12.5 µM): 205 Miller units
- β-galactosidase activity, single replicate (12.5 µM): 258 Miller units and 180 Miller units and 177 Miller units and 206 Miller units
- β-galactosidase activity, Mean (25 µM): 197 Miller units
- β-galactosidase activity, single replicate (25 µM): 241 Miller units and 190 Miller units and 188 Miller units and 169 Miller units
- β-galactosidase activity, Mean (50 µM): 269 Miller units
- β-galactosidase activity, single replicate (50 µM): 316 Miller units and 254 Miller units and 275 Miller units and 231 Miller units
- β-galactosidase activity, individual replicate (6.25 µM hormone): 54 Miller units and 39 Miller units
- β-galactosidase activity, Miller units (single replicate) (6.25 µM, first data set (c15-c36)): 147 Miller units and 157 Miller units and 114 Miller units and 129 Miller units
- β-galactosidase activity, Miller units (single replicate) (6.25 µM, second data set (c53-c74)): 43 Miller units and 41 Miller units
- β-galactosidase activity, individual replicate (12.5 µM hormone): 72 Miller units and 56 Miller units
- β-galactosidase activity, Miller units (single replicate) (12.5 µM, first data set (c15-c36)): 160 Miller units and 155 Miller units and 156 Miller units and 149 Miller units
- β-galactosidase activity, Miller units (single replicate) (12.5 µM, second data set (c53-c74)): 45 Miller units and 43 Miller units
- β-galactosidase activity, individual replicate (25 µM hormone): 63 Miller units
- β-galactosidase activity, Miller units (single replicate) (25 µM, first data set (c15-c36)): 152 Miller units and 181 Miller units and 159 Miller units and 157 Miller units
- β-galactosidase activity, Miller units (single replicate) (25 µM, second data set (c53-c74)): 63 Miller units and 52 Miller units

Reference: article PMC10850145, “Hormonal steroids induce multidrug resistance and stress response genes in Neisseria gonorrhoeae by binding to MtrR” (Nature Communications, 2024)
